Values of other authors in US7723528B2, “Sulfur transfer reagents for oligonucleotide synthesis” (AM Chemicals LLC, priority 2008, dated 2010).

Conditions: background statement

| Hydrolytic stability | SMILES |
| --- | --- |
| rather low | O=C1SS(=O)(=O)c2ccccc21 [Beaucage reagent, 3H-1,2-benzodithiol-3-one-1,1-dioxide] |
| rather low | CCOc1nc(=O)ss1 [EDITH, 3-ethoxy-1,2,4-dithiazoline-5-one] |
